Common to all, as to assay type: functional, organism-based
Common to all, as to details: Mus musculus

Experiment [1] concerns MC-38. The experiment in a line: In Vivo antitumor effect on subcutaneously implanted C38 colon tumor in mice and examined by histopathology and compared with control.( + = 50-90% hemorrhagic necrosis response) at optimal dose of 500 (mg/kg).
The test system of experiment [2] is MC-38. Nature of the experiment: In Vivo antitumor effect on subcutaneously implanted C38 colon tumor in mice and examined by histopathology and compared with control.( - = <50% hemorrhagic response) at optimal dose of 750 (mg/kg).
In experiment [3] the test system is MC-38. The experiment in a line: In Vivo antitumor effect on subcutaneously implanted C38 colon tumor in mice and examined by histopathology and compared with control.(+ = 50-90% hemorrhagic necrosis response) at optimal dose of 750 (mg/kg).
In experiment [4] the test system is MC-38. Nature of the experiment: In Vivo antitumor effect on subcutaneously implanted C38 colon tumor in mice and examined by histopathology and compared with control.( ++ = >90% hemorrhagic necrosis response) at optimal dose of 220 (mg/kg).
For experiment [5], the system named is MC-38. Nature of the experiment: In Vivo antitumor effect on subcutaneously implanted C38 colon tumor in mice and examined by histopathology and compared with control.( + = 50-90% hemorrhagic necrosis response) at optimal dose of 750 (mg/kg).
Experiment [6] relates to MC-38. Nature of the experiment: In Vivo antitumor effect on subcutaneously implanted C38 colon tumor in mice and examined by histopathology and compared with control.( - = <50% hemorrhagic response) at optimal dose of 500 (mg/kg).
Experiment [7] concerns MC-38. Nature of the experiment: In Vivo antitumor effect on subcutaneously implanted C38 colon tumor in mice and examined by histopathology and compared with control.( - = <50% hemorrhagic response) at optimal dose of 330 (mg/kg).

On to `O=C(O)Cc1cccc2c1oc1ccccc12`, for which the Activity in experiment [1] is reported as 50-90% hemorrhagic necrosis response at optimal dose of 500 mg/kg. For the compound `O=C(O)Cc1cccc2c1Oc1ccccc1[S+]2[O-]` (stereo unspecified), the Activity in experiment [2] is given as <50% hemorrhagic response at optimal dose of 750 mg/kg.

As to `O=C(O)Cc1cccc2oc3ccccc3c12`, the Activity in experiment [2] was <50% hemorrhagic response at optimal dose of 750 mg/kg. With `O=C(O)Cc1cccc2c1Oc1ccccc1CC2=O`, in experiment [2], the Activity is on record as <50% hemorrhagic response at optimal dose of 750 mg/kg. Same read-out and setting: with `O=C(O)Cc1cccc2c1Oc1ccccc1S2(=O)=O` the figure was <50% hemorrhagic response at optimal dose of 750 mg/kg. For the compound `O=C(O)Cc1cccc2c1C(=O)c1ccccc1C2=O`, the Activity in experiment [3] was 50-90% hemorrhagic necrosis response at optimal dose of 750 mg/kg.

For `O=C(O)Cc1cccc2nc3ccccc3nc12`, the Activity in experiment [2] is <50% hemorrhagic response at optimal dose of 750 mg/kg. Same read-out and setting: with `O=C(O)Cc1cccc2c1Oc1ccccc1O2` the figure was <50% hemorrhagic response at optimal dose of 750 mg/kg.

On to `O=C(O)Cc1cccc2c(=O)c3ccccc3oc12`, for which, in experiment [4], the Activity is >90% hemorrhagic necrosis response at optimal dose of 220 mg/kg. Consider `O=C(O)Cc1cccc2cc3ccccc3cc12`, for which, in experiment [5], the Activity is 50-90% hemorrhagic necrosis response at optimal dose of 750 mg/kg. On to `O=C(O)Cc1cccc2c1S(=O)(=O)c1ccccc1C2=O`, for which the Activity in experiment [2] is listed as <50% hemorrhagic response at optimal dose of 750 mg/kg. Same read-out and setting: with `O=C(O)Cc1cccc2c(=O)c3ccccc3[s+]([O-])c12` (stereo unspecified) the figure was <50% hemorrhagic response at optimal dose of 750 mg/kg.

Consider `O=C(O)Cc1cccc2c1Oc1ccccc1C2`, for which the Activity in experiment [6] is <50% hemorrhagic response at optimal dose of 500 mg/kg. With `O=C(O)Cc1cccc2c1Oc1ccccc1S2`, in experiment [7], the Activity is given as <50% hemorrhagic response at optimal dose of 330 mg/kg. Take `O=C(O)Cc1cccc2c1Oc1ccccc1C(=O)C2`: the Activity in experiment [5] is on record as 50-90% hemorrhagic necrosis response at optimal dose of 750 mg/kg. Take `O=C(O)Cc1cccc2c(=O)c3ccccc3sc12`: the Activity in experiment [7] is reported as <50% hemorrhagic response at optimal dose of 330 mg/kg.
